Experimental data taken from patent publication US9012483B2, “Use of L-Histidine and derivatives thereof” (priority 2011, dated 2015).
Entries after “also recorded” stand apart in the source; their conditions may differ. Read-outs that look alike come from different tables or passages of the source. Marks after values point to notes of the source that are not given here. Blank lines part the entries; values can stand above or below the compound they belong to.

Assays:
[1] = test system: Gd(DTPA-BMA) and Gd(DTPA) complexes with Cu(II); assay: Kinetics of transmetallation of Gd(DTPA) and Gd(DTPA-BMA) with Cu(II) in the presence of citrate and histidine (spectrophotometry, 300 nm); type: physicochemical; details: [GdL]=2.0 mM, [Cu]=0.1 mM, [cit]=2.0 mM, [His]=0.2-0.8 mM, pH 7.0, 25° C., 0.15 M NaCl
Method: In order to have some clues on the kinetics of a possible transmetallation reactions in the presence of citrate (an important counter-ion present in plasma and found to be highly interactive with Gd^3+) and increasing amounts of histidine, the rates of the following reactions have been studied: GdL+Cu^2++His+cit⇄CuL+Gd(cit)+His (1)
In the experiment, the concentration used for Gd^3+ complex (GdL), citrate and Cu^2+ were: 2.0, 2.0 and 0.1 mM, respectively, while the concentration of His was varied (0.2, 0.4, 0.6 and 0.8 mM).
The progress of the exchange reactions (1) has been studied by spectrophotometry (Cary 1E spectrophotometer) at 300 nm, with the use of 1.0 cm quartz cell at 25° C. in 0.15 M NaCl in the pH range 6-8. […]

[2] = cited from earlier work
[3] = for changes in Gd^3+ content in liver and spleen: versus group 1; for % ID in femour, mean / Gadolinium content in femour, mean: p < 0.01 vs group 1; for Gadolinium content in skin, mean: p < 0.05 vs group 1
Excerpt: L-Histidine was orally administered by gavage, while Omniscan® was intravenously administered.
On the day of scheduled sacrifice, animals were anesthetized with an inhalation agent, sevoflurane, at an respiratory concentration of 3% in induction and 1-2% in maintenance and bled after collection of blood from the abdominal aorta. After exsanguination, liver, spleen, femur and skin of all animals were excised, weighed and prepared for ICP-MS determination of gadolinium content. Sample digestion (spleen and femur) was performed by a microwave system (MARS-5 CEM Corporation).
Liver and skin samples were freeze-dried with a lyophilizer (Alpha-1-2LD Plus, CHRIST) after being frozen at −80° C. for at least 1 h. After drying, dehydrated livers were weighed and then ground in a mortar.
Gadolinium content in organs was reported as μg of Gd.

[4] = Clinical signs in the pharmacokinetic study after oral histidine; type: in vivo, CD(SD)IGS BR rat; details: rat, up to 1000 mg/kg
Method: (§1) Rats were used to determine the pharmacokinetic parameters after administration of three different histidine doses (100, 500 and 1000 mg/kg, three animals for each group).

[5] = cited from earlier work; remark: listed apart in the source
Gd(DTPA-BMA) = assay: Dissociation of Gd(DTPA-BMA) in artificial plasma, relaxivity at 20 MHz; type: physicochemical; details: pH 7.5, 37° C.
[6] = Pharmacokinetics of histidine in plasma after oral administration; type: in vivo, CD(SD)IGS BR rat; details: for Tmax / AUC(0-inf) / Cmax: male, CD(SD)IGS BR; for Tmax / AUC(0-inf) / Cmax / t1/2λz: rat plasma; for total plasma clearance: rat
Method: Aliquots of L-Histidine dihydrochloride powder, accurately weighted, were transferred into 5 and 10 mL volumetric flasks. MilliQ-water was used to dissolve the powder. Standard solution was prepared to obtain CAL samples and CQ samples. The range of the stock standard solution was from 3.46 to 343 μg/mL. All standard solutions were stored at +4° C., in the dark: under these conditions they were considered stable for up to one month.
CAL samples were prepared by using the standard solution at the concentration of 3.46, 34.3, 68.6, 173 and 343 μg/mL and QC samples by using the standard solution at the concentration of 14.3, 67.1, 143 and 268 μg/mL.
CAL and QC samples were prepared by mixing 10 μL of Histidine standard solution with […] of blank rat plasma.
(§2) To these samples 20 μL of trichloroacetic acid (16% w/v) were added to precipitate the plasma proteins. The tubes were vortexed for few seconds and centrifuged for 10 min at 2000 g at room temperature; to 90 μL of the clear supernatant 45 μL of a soaked solution of Sodium carbonate (200 mM) and 90 μL of derivatizing solution (4 mg/mL of Dansyl chloride) were added. The tubes were vortexed for few seconds and incubated under stirring for 30 minutes at 60° C. Five microliters of Methylamine Hydrochloride were added and after cooling for 15 minutes, ten microliters of the sample were injected into the HPLC equipment.
as §2, with “Test plasma samples (S) were prepared by adding 10 μL of Milli-Q water to 90 μL of undiluted plasma or 90 μL of plasma suitably diluted with blank plasma (if sample volume was not enough). To” for “To”, “equipment. All plasma samples collected during the study were stored at −20° C. until analysis.” for “equipment.”
• Species and strain: CD(SD)IGS BR rat • sex of animals: males • Weight and age at treatment: 306-376 g (10-14 weeks old) • Supplier: Charles River Laboratories, Calco (LC), Italy
as §1
Plasma concentrations of Histidine as a function of time after injection C(t), were analyzed by non-parametric methods using the computer program WIN-NONLIN 4.0.1. For the tested doses, a non-compartmental analysis was performed using the average plasma concentrations from 3 animals for each time point (except when indicated). For Cmax (peak plasma concentration) and the corresponding tmax ([…]) the observed values were reported. The terminal phase elimination rate constant (λz) was estimated by log-linear regression of those data points visually assessed to be in the terminal phase of the profile. At least three terminal plasma concentrations were used for estimating λz. The terminal elimination half life (t ½ λz, time required for a drug to decline to half of its original plasma value) was calculated as t ½ λz=In 2/λz. Area under the plasma concentration-time curve to the last observable plasma concentration (AUC(0 to t)) was calculated from observed data using the logarithmic trapezoidal method. Total area under the plasma concentration-time curve from zero to infinity (AUC(0 to ∞)) was estimated by AUC(0 to ∞) =AUC(0 to t) +ct/λz, where ct is the predicted concentration at the last quantified time point. AUC defines extent of drug exposure.

[7] = rat, oral histidine 4.38 mmol/kg and iv Omniscan 1 mmol/kg
Cu(His)2 = assay: Exchange reaction between Gd(DTPA-BMA) and Cu(His)2 without and with citrate (UV spectrum); type: physicochemical; details: Cu(His)2 0.2 mM, Gd(DTPA-BMA) 2.0 mM, pH 6.5, 25° C., 0.15 M NaCl
Method: FIG. 3. The UV spectrum of Cu(His)2 in the presence of Gd(DTPA-BMA) excess (Panel A) and in the presence of citrate and Gd(DTPA-BMA) excess (Panel B). (Cu(His)2=0.2 mM, Gd(DTPA-BMA)=2.0 mM) (A). (Cu(His)2=0.2 mM, Gd(DTPA-BMA)=2.0 mM, Citrate=2.0 mM) (B). pH=6.5, 25° C., 0.15 M NaCl.
It is possible to conclude that in body fluids transmetallation reactions may take place between the DTPA-derivative Gd^3+ complexes and endogenous metal ions, like Cu^2+ and Zn^2+. The possibility of the transmetallation reactions can be predicted on the basis of the stability constants of complexes formed between the most important endogenous metals and ligands. The stability constants have been determined for the Gd^3+, Cu^2+ and Zn^2+ complexes of the DTPA, DTPA-BMA, citrate and histidine ligands. […] The species distribution calculations have been experimentally verified by following the exchange reactions between Gd(DTPA-BMA) and Cu(His)2 in the absence and presence of citrate.

[8] = group 2, histidine pretreatment at 30 min
[9] = group 2: oral histidine 4.38 mmol/kg 30 min before Omniscan 1 mmol/kg iv, 24 h
[10] = group 2: oral histidine 4.38 mmol/kg 30 min before Omniscan 1 mmol/kg iv, 24 h, listed as Histidine
[11] = group 2: oral histidine 4.38 mmol/kg 30 min before Omniscan 1 mmol/kg iv, 24 h, listed as histidine
[12] = histidine 30 min before Omniscan versus no histidine pretreatment

SMILES: N[C@@H](Cc1c[nH]cn1)C(=O)O [L-Histidine]
extent (conversion) of the transmetallation reactions, CuL formed ([1]; listed as Histidine): decrease | rates of the transmetallation reactions ([1]; listed as Histidine): decrease | extent (conversion) of the transmetallation reactions, CuL formed ([1]; listed as histidine): significantly decrease; also recorded: decrease with increasing concentration of histidine | rates of the transmetallation reactions ([1]; listed as histidine): significantly decrease; also recorded: decrease with increasing concentration of histidine | time to peak levels after oral administration ([2]; L-Histidine in the salt form (HCl), oral route): 30 to 45 min | AUC(0 to ∞) ([2]; healthy volunteers, single oral administration of Histidine at 100 mg/kg): 477 µg·h/mL | % ID in liver, spleen and skin versus group 1 [3, 8]: not significantly different | changes in Gd^3+ content in liver and spleen [3, 8]: no significant changes | % ID in liver, mean [3, 9]: 0.1094 % ID | % ID in skin, mean [3, 9]: 0.0067 % ID | % ID in spleen, mean [3, 9]: 0.00478 % ID | Gadolinium content in liver, mean [3, 9]: 20.7 nmol/g of tissue | Gadolinium content in spleen, mean [3, 9]: 20.0 nmol/g of tissue | % ID in femour, mean [3, 10]: 0.00166** % ID | Gadolinium content in femour, mean [3, 10]: 6.90** nmol/g of tissue | % ID in femour, mean [3, 11]: 0.00166 % ID | Gadolinium content in femour, mean [3, 11]: 6.90 nmol/g of tissue | Gadolinium content in skin, mean [3, 10]: 11.25* nmol/g of tissue | Gadolinium content in skin, mean [3, 11]: 11.25 nmol/g of tissue | changes in Gd^3+ content in liver and spleen ([3]; group 3, histidine pretreatment at 1 h): no significant changes | decrease in Gd^3+ content in femur (nmol/g tissue) [3, 12]: about 40% | decrease of % ID in femour [3, 12]: about 40% | effect on Gd^3+ accumulation ([3]; histidine treatment 60 min before Omniscan administration): didn't show, in this model, any effect | clinical signs [4]: No clinical signs were observed | serum parameters including protein bound zinc, serum and urinary zinc levels ([5]; human subjects, L-histidine up to 4 g/day, 15-days treatment): not shown to be grossly altered | adverse effects ([5]; humans, oral, up to 4-6 g/day for several days): neither important adverse effects nor minor inconveniences | effect on the increase of relaxivity / extent of dissociation of Gd(DTPA-BMA) (Gd(DTPA-BMA); histidine 0.5 mM and 1.0 mM added to artificial plasma with 1.0 mM Gd(DTPA-BMA)): concentration dependent drop in the increase of the relaxivity values; also recorded: significantly decreases | Tmax ([6]; 100 mg/kg): 0.5 h | Tmax ([6]; 1000 mg/kg): 0.5 h | AUC(0-inf) ([6]; Histidine 100 mg/kg): 550 µg·h/mL | Cmax ([6]; Histidine 100 mg/kg (0.438 mmol/kg)): 9000 ng/mL | AUC(0-inf) ([6]; Histidine 500 mg/kg): 630 µg·h/mL | Tmax ([6]; Histidine 500 mg/kg): 1 h | Cmax ([6]; Histidine 500 mg/kg (2.192 mmol/kg)): 20900 ng/mL | AUC(0-inf) ([6]; Histidine 1000 mg/kg): 390 µg·h/mL | Cmax ([6]; Histidine 1000 mg/kg (4.38 mmol/kg)): 36000 ng/mL | t1/2λz ([6]; Histidine 100 mg/kg (Table A)): 51 h | t1/2λz ([6]; Histidine 500 mg/kg (Table A)): 47 h | t1/2λz ([6]; Histidine 1000 mg/kg (Table A)): 13 h | total plasma clearance ([6]; 100 mg/kg): 3 mL/min/kg | total plasma clearance ([6]; 500 mg/kg): 13.2 mL/min/kg | total plasma clearance ([6]; 1000 mg/kg): 42.7 mL/min/kg | mortality and clinical signs [7]: No mortalities nor changes in clinical signs

changes of the UV spectrum of Cu(His)2 (transmetallation) (Cu(His)2; no citrate): no changes
SMILES: CNC(=O)CN(CCN(CCN(CC(=O)[O-])CC(=O)NC)CC(=O)[O-])CC(=O)[O-].[Gd+3] [Omniscan ®, Gadodiamide]
changes of the UV spectrum of Cu(His)2 (transmetallation) (Cu(His)2; citrate 2.0 mM): the transmetallation reaction takes place | relaxivity values as a function of time (dissociation of the complex) (Gd(DTPA-BMA); 1.0 mM Gd(DTPA-BMA) in artificial plasma, no added histidine): relaxivity values increase as a function of time
